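Five compound concentrations were applied to cells in 96-well plates for 48 hours; endpoints were derived by simple linear interpolation of the resulting dose-response curve. Here, GI50 denotes the concentration required for 50% inhibition of growth.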 Activity calls are given as the source filed them. Cut-off read from the data, not from the text of the source: active = GI50 up to about 1.1 µM and inactive = higher.
Legend:
Experiment in all cases: NCI tumour cell line growth inhibition, 48 h
[1] = test system: TK-10
[2] = test system: SW-620
[3] = test system: SK-MEL-5
[4] = test system: NCI-H23
[5] = test system: RPMI-8226
[6] = test system: SN12C
[7] = test system: ACHN
[8] = test system: HOP-92
[9] = test system: HOP-62
[10] = test system: LOX IMVI
[11] = test system: CCRF-CEM
[12] = test system: RXF 393
[13] = test system: K562
[14] = test system: SF-539
[15] = test system: A498
[16] = test system: SF-268
[17] = test system: CAKI-1
[18] = test system: OVCAR-4
[19] = test system: PC-3
[20] = test system: NCI/ADR-RES

SMILES | GI50 [1] | GI50 [2] | GI50 [3] | GI50 [4] | GI50 [5] | GI50 [6] | GI50 [7] | GI50 [8] | GI50 [9] | GI50 [10] | GI50 [11] | GI50 [12] | GI50 [13] | GI50 [14] | GI50 [15] | GI50 [16] | GI50 [17] | GI50 [18] | GI50 [19] | GI50 [20]
Oc1cc(-c2cccs2)nc2cc3c(cc12)OCO3 | 21.3 µM (inactive) | 3.03 µM (inactive) | 1.75 µM (inactive) | 3.78 µM (inactive) | 6.32 µM (inactive) | 6.76 µM (inactive) | 7.31 µM (inactive) | > 100 µM (inactive) | 3.96 µM (inactive) | 4.92 µM (inactive) | 3.66 µM (inactive) | 1.9 µM (inactive) | 2.42 µM (inactive) | 3.7 µM (inactive) | 3.17 µM (inactive) | 6.43 µM (inactive) |  |  |  | 
O=C(c1ccccc1)N1C2CCC1C(C(F)(F)F)=C2C(F)(F)F | > 100 µM (inactive) | > 100 µM (inactive) | > 100 µM (inactive) | > 100 µM (inactive) | > 100 µM (inactive) | > 100 µM (inactive) |  | > 100 µM (inactive) | > 100 µM (inactive) | > 100 µM (inactive) | > 100 µM (inactive) | > 100 µM (inactive) | > 100 µM (inactive) | > 100 µM (inactive) | > 100 µM (inactive) | > 100 µM (inactive) | > 100 µM (inactive) | > 100 µM (inactive) |  | 
CCSc1nc2sc(C)c(C)c2c(=O)n1-c1ccc(C(=O)O)cc1 | > 100 µM (inactive) | > 100 µM (inactive) | 49 µM (inactive) | 38.3 µM (inactive) | 34.1 µM (inactive) | 55.1 µM (inactive) | 79.6 µM (inactive) | > 100 µM (inactive) | 88.5 µM (inactive) | 56.2 µM (inactive) | 52.5 µM (inactive) | 25.5 µM (inactive) | 55.5 µM (inactive) | 18.8 µM (inactive) | 29.9 µM (inactive) | 27.2 µM (inactive) | > 100 µM (inactive) | 71.8 µM (inactive) |  | 
CC1=C(C(=O)Nc2ccc([N+](=O)[O-])cc2)C(c2ccccc2O)C(C(=O)Nc2ccc([N+](=O)[O-])cc2)=C(C)N1 | 44.7 µM (inactive) | 29.2 µM (inactive) | 16.4 µM (inactive) | 18.6 µM (inactive) | 17.6 µM (inactive) | 19.6 µM (inactive) | 13.8 µM (inactive) | 11.7 µM (inactive) | 14.1 µM (inactive) | 16.1 µM (inactive) | 18 µM (inactive) | 10.1 µM (inactive) | 17.9 µM (inactive) | 22.1 µM (inactive) | 20.1 µM (inactive) | 19.1 µM (inactive) | 21.4 µM (inactive) | 23.7 µM (inactive) |  | 
O=C1c2cnccc2Cc2cccc3c2N1c1ccccc1S3 |  | 27.8 µM (inactive) | 17.9 µM (inactive) | 20.1 µM (inactive) | 20.6 µM (inactive) | 29 µM (inactive) | 19 µM (inactive) | 9.23 µM (inactive) | 20.9 µM (inactive) | 22.7 µM (inactive) | 27.5 µM (inactive) | 21.6 µM (inactive) | 20.8 µM (inactive) | 20.6 µM (inactive) | 20.7 µM (inactive) | 29 µM (inactive) | 2.88 µM (inactive) | 21.5 µM (inactive) |  | 
COc1c(OC(C)=O)cc2c(OC(C)=O)c1CC(C)CC(OC)C(O)C(C)/C=C(\C)C(OC(N)=O)C(OC)/C=C\C=C(/C)C(=O)N2 (stereo not given) | > 81.8 µM (inactive) | 24 µM (inactive) | > 100 µM (inactive) | > 100 µM (inactive) | > 54.5 µM (inactive) | 69.5 µM (inactive) | > 100 µM (inactive) | 96.8 µM (inactive) | > 100 µM (inactive) | > 100 µM (inactive) | > 53.5 µM (inactive) | 98.2 µM (inactive) | > 26.3 µM (inactive) | > 100 µM (inactive) | > 100 µM (inactive) | > 100 µM (inactive) | > 100 µM (inactive) | > 100 µM (inactive) |  | 
O=C(O)/C(Cl)=C(\Cl)C(=O)Nc1ccccc1 | > 100 µM (inactive) | > 100 µM (inactive) | > 100 µM (inactive) | > 100 µM (inactive) | > 100 µM (inactive) | > 100 µM (inactive) | > 100 µM (inactive) | > 100 µM (inactive) | > 100 µM (inactive) | > 100 µM (inactive) | 69.3 µM (inactive) | > 100 µM (inactive) | > 100 µM (inactive) | > 100 µM (inactive) | > 100 µM (inactive) | > 100 µM (inactive) | > 100 µM (inactive) | > 100 µM (inactive) |  | 
CN(C)CN(C)c1nc(N(C)C)nc(N(C)CN(C)C)n1 | > 100 µM (inactive) | 23.9 µM (inactive) | 51.1 µM (inactive) | 27.2 µM (inactive) | 27.2 µM (inactive) | 63.5 µM (inactive) | 45.4 µM (inactive) | 63 µM (inactive) | > 100 µM (inactive) | 22.9 µM (inactive) | 25.7 µM (inactive) | 19.5 µM (inactive) | 30.8 µM (inactive) | 50.4 µM (inactive) | > 100 µM (inactive) | 51.6 µM (inactive) | > 100 µM (inactive) | 42.4 µM (inactive) |  | 
CCOC(=O)/C(C#N)=C/c1[nH]c(C)c(C)c1C | > 100 µM (inactive) | > 100 µM (inactive) | > 100 µM (inactive) | > 100 µM (inactive) | > 100 µM (inactive) | > 100 µM (inactive) |  | > 100 µM (inactive) | > 100 µM (inactive) | > 100 µM (inactive) | > 100 µM (inactive) | > 100 µM (inactive) | > 100 µM (inactive) | > 100 µM (inactive) | > 100 µM (inactive) | > 100 µM (inactive) | > 100 µM (inactive) | > 100 µM (inactive) |  | 
Cc1cc([N+](=O)[O-])ccc1/N=N/C(=O)NNc1ccc([N+](=O)[O-])cc1C | 16.7 µM (inactive) | 16.7 µM (inactive) | 13.6 µM (inactive) | 17.3 µM (inactive) | 21.3 µM (inactive) | 16.7 µM (inactive) | 15.8 µM (inactive) |  | 13.7 µM (inactive) | 15.9 µM (inactive) | 20.1 µM (inactive) |  | 19.5 µM (inactive) |  | 13.6 µM (inactive) | 20 µM (inactive) | 14.8 µM (inactive) | 14.1 µM (inactive) | 13.5 µM (inactive) | 
CCCCCCCCCCCCCC(=O)OC1CC(=O)OC1CO (stereo not given) | > 100 µM (inactive) | 71.6 µM (inactive) | 91.8 µM (inactive) |  | 36.5 µM (inactive) | > 100 µM (inactive) | 46 µM (inactive) | 17 µM (inactive) | > 100 µM (inactive) | 28.2 µM (inactive) | 25.5 µM (inactive) | > 100 µM (inactive) | 21.9 µM (inactive) | > 100 µM (inactive) | 77.6 µM (inactive) | 64 µM (inactive) | 81.1 µM (inactive) | > 100 µM (inactive) |  | 
CC(C)(C)c1nc2c(o1)/C(=N\c1ccccc1)c1ccccc1C2=O | 30.2 µM (inactive) | 4.47 µM (inactive) | 1.42 µM (inactive) | 1.44 µM (inactive) | 3.94 µM (inactive) | 3.64 µM (inactive) | 4.69 µM (inactive) | 4.69 µM (inactive) | 17.3 µM (inactive) | 0.603 µM (active) | 5.61 µM (inactive) | 4.91 µM (inactive) | 3.55 µM (inactive) | 2.99 µM (inactive) | 17.5 µM (inactive) | 3.55 µM (inactive) | 12 µM (inactive) | 2.74 µM (inactive) |  | 
CCOCc1cc(=O)c2cc3c(cc2o1)OC(C)(C)CC3 | > 100 µM (inactive) | > 100 µM (inactive) | 56.6 µM (inactive) | > 100 µM (inactive) | 91.4 µM (inactive) | > 100 µM (inactive) | > 100 µM (inactive) | 45.7 µM (inactive) | > 100 µM (inactive) | > 100 µM (inactive) | > 100 µM (inactive) | > 100 µM (inactive) | 97.5 µM (inactive) | > 100 µM (inactive) | > 100 µM (inactive) | > 100 µM (inactive) | > 100 µM (inactive) | > 100 µM (inactive) |  | 
NC(=O)C(=O)CC(=O)c1ccccc1NC1=CC(=O)C(=O)c2ccccc21 | > 100 µM (inactive) | 43.8 µM (inactive) | 29.3 µM (inactive) | 31.2 µM (inactive) | > 40.6 µM (inactive) | 51.6 µM (inactive) | > 87.9 µM (inactive) | 23.9 µM (inactive) | > 100 µM (inactive) | 14 µM (inactive) | 33.9 µM (inactive) | > 83.4 µM (inactive) | 47 µM (inactive) | > 100 µM (inactive) | > 100 µM (inactive) | > 40.8 µM (inactive) | > 100 µM (inactive) | 19.2 µM (inactive) |  | 
CS(=O)(=O)OCCn1cnc2nc(NC(=O)c3ccccc3)[nH]c(=O)c21 | > 100 µM (inactive) | > 100 µM (inactive) | > 100 µM (inactive) |  | > 100 µM (inactive) | > 100 µM (inactive) | > 100 µM (inactive) | > 100 µM (inactive) | > 100 µM (inactive) | > 100 µM (inactive) | > 100 µM (inactive) | > 100 µM (inactive) | > 100 µM (inactive) | > 100 µM (inactive) | > 100 µM (inactive) | > 100 µM (inactive) | > 100 µM (inactive) | > 100 µM (inactive) |  | 
COc1ccc(OC)c(-c2cc(=O)c3c(OC)c(OC)c(OC)c(OC)c3o2)c1 | 37.9 µM (inactive) | 33 µM (inactive) | 12.4 µM (inactive) | 30.1 µM (inactive) | 21.5 µM (inactive) | 27.9 µM (inactive) | 20.7 µM (inactive) | 11.7 µM (inactive) | 27.6 µM (inactive) | 25.6 µM (inactive) | 13.4 µM (inactive) | 22 µM (inactive) | 22.2 µM (inactive) | 41.1 µM (inactive) | 36.1 µM (inactive) | 36 µM (inactive) | 40.6 µM (inactive) | 20 µM (inactive) |  | 22.8 µM (inactive)
